Experimental findings from patent US8034822B2, “Glucokinase activators” (Takeda San Diego, Inc., priority 2006, dated 2011) are described below.

The structures appear in SMILES notation. Where only a bound is given, the exact number is not on record here.

The target of the test is T1, glucokinase (GK) (Homo sapiens, UniProt P35557).
T1 construct: I.D. No. 1 corresponds to residues 12-465 of glucokinase; made in house; host or cells: E. coli DH10b-T1r, pFLAG-CTC plasmid
T1 sequence (P35557 with tags, fused parts or gaps isoform P35557-2): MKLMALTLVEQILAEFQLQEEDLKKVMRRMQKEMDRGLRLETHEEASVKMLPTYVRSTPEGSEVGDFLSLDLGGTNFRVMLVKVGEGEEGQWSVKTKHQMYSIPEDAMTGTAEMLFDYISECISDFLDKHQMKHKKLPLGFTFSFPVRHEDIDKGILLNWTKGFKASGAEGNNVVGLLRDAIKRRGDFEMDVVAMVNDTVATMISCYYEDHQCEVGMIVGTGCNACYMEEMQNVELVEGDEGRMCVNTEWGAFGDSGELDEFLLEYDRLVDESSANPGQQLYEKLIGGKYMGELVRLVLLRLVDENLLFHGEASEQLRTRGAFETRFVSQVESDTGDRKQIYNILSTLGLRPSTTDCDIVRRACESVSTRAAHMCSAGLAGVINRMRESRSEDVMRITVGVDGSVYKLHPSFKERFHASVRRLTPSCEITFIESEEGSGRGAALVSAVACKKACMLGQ
Put plainly: enzymatic glucokinase activity assay (ATP consumption, KinaseGlo luminescence). Format: biochemical. Particulars: Against GK; Kact = concentration giving 50% of maximal increase in GK activity; 5 μM ATP, 5 mM Glucose, 60 min room temperature; values given as bins; read-out: pKact. The source says: The activity of compounds as glucokinase activators may be assayed in vitro, in vivo or in a cell line. Provided below is an enzymatic glucokinase activity assay.
Purified glucokinase may be obtained as follows. DNA encoding residues 12-465 of the full-length sequence of the human enzyme may be amplified by PCR and cloned into the HindIII and EcoRI sites of pFLAG-CTC (Sigma). SEQ. I.D. No. 1 corresponds to residues 12-465 of glucokinase.
The expression of recombinant glucokinase protein may be carried out by transformation and growth of DH10b-T1r E. coli cells incorporating the (pFLAG-CTC) plasmid in LB media. Protein expression can be induced in this system by the addition of IPTG to the culture medium.
Recombinant protein may be isolated from cellular extracts by passage over Sepharose Q Fast Flow resin (Pharmacia). This partially purified GK extract may then be further purified by a second passage over Poros HQ10 (Applied Biosystems). The purity of GK may be determined on denaturing SDS-PAGE gel. Purified GK may then be concentrated to a final concentration of 20.0 mg/ml. After flash freezing in liquid nitrogen, the proteins can be stored at −78° C. in a buffer containing 25 mM TRIS-HCl pH 7.6, 50 mM NaCl, and 0.5 mM TCEP.
The activation properties of compounds for GK may be determined using a black 384-well-plate format under the following reaction conditions: 25 mM Hepes pH 7.2, 25 mM NaCl, 10 mM MgCl2, 0.01% Brij35, 1 mM DTT, 5 μM ATP, 5 mM Glucose 2% DMSO. The amount of ATP consumed may be determined quantitatively by addition of equal volume of luciferase reagent (luciferase+beetle luciferin—KinaseGlo Luminescent Kinase Assay kit from Promega). The luminescence intensity may be measured by using the Analyst HT from LJL Biosystems.
The assay reaction may be initiated as follows: 4 μl of substrate mixture (12.5 μM ATP and 12.5 mM Glucose) was added to each well of the plate, followed by the addition of 2 μl of activator (2 fold serial dilutions for 11 data points for each activator) containing 10% DMSO. 4 μL of 1.25 nM GK solution may be added to initiate the reaction. The reaction mixture may then be incubated at room temperature for 60 min, and quenched and developed by addition of 10 μL of luciferase reagent. Luminescence intensities of the resulting reaction mixtures may be measured after a 10 min incubation at room temperature. The luminescence intensity may be measured by using the Analyst HT from LJL Biosystems.
pKact and % ACTmax values may be calculated by non-linear curve fitting of the compound concentrations and luminescence intensities to a standard inhibition/activation equation.
Background: Kinase-Glo measures the ATP left after a reaction by luminescence.
As to `NC(=O)c1ccc(NC(=O)C(CC2CCCCC2)n2cnc3cc(S(=O)(=O)C4CC4)ccc3c2=O)nc1` (stereo not shown) [Compound 91, 6-[3-Cyclohexyl-2-(7-cyclopropanesulfonyl-4-oxo-4H-quinazolin-3-yl)-propionylamino]-nicotinamide], the EC50 was at most 398 nM.
Consider `O=C(NC1CC1)c1ccc2c(=O)n(C(CC3CCCCC3)C(=O)Nc3ccc(F)cn3)cnc2c1` (stereo not shown) [Compound 118, 3-(3-Cyclohexyl-1-(5-fluoropyridin-2-ylamino)-1-oxopropan-2-yl)-N-cyclopropyl-4-oxo-3,4-dihydroquinazoline-7-carboxamide], for which the EC50 fell in the range of 501 to 794 nM.
Under `CS(=O)(=O)c1ccc2c(=O)n(C(CC3CCCCC3)C(=O)Nc3ccc(C(=O)O)cn3)c(=O)[nH]c2c1` (stereo not shown) [Compound 64, 6-[3-Cyclohexyl-2-(7-methanesulfonyl-2,4-dioxo-1,4-dihydro-2H-quinazolin-3-yl)-propionylamino]-nicotinic acid] stands at least 2000 nM; under `O=C(Nc1ccccn1)C(CC1CCCCC1)n1cnc2ccc(F)cc2c1=O` (stereo not shown) [Compound 36, 3-cyclohexyl-2-(6-fluoro-4-oxoquinazolin-3(4H)-yl)-N-(pyridin-2-yl)propanamide], at least 2000 nM; under `CS(=O)(=O)c1ccc2c(=O)n(C(CC3CCCCC3)C(=O)Nc3ccc(C(=O)O)cn3)cnc2c1` (stereo not shown) [Compound 65, 6-[3-Cyclohexyl-2-(7-methanesulfonyl-4-oxo-4H-quinazolin-3-yl)-propionylamino]-nicotinic acid], at least 2000 nM.
Take `COC(=O)c1ccc(NC(=O)C(CC2CCCCC2)n2cnc3c(S(C)(=O)=O)csc3c2=O)nc1` (stereo not shown) [Compound 102, Methyl 6-(3-cyclohexyl-2-(7-(methylsulfonyl)-4-oxothieno[3,2-d]pyrimidin-3(4H)-yl)propanamido)nicotinate]: the EC50 fell in the range of 1000 to 1580 nM.
Under `COC(=O)c1ccc(NC(=O)[C@H](CC2CCCCC2)n2cnc3c(C(F)(F)F)cccc3c2=O)nc1` [Compound 210, (S)-methyl 6-(3-cyclohexyl-2-(4-oxo-8-(trifluoromethyl)quinazolin-3(4H)-yl)propanamido)nicotinate] stands 1000 to 1580 nM; under `O=C(NC1CC1)c1ccc2c(=O)n(C(CC3CCOCC3)C(=O)Nc3ncc(Cl)s3)c(=O)[nH]c2c1` (stereo not shown) [Compound 181, 3-(1-(5-chlorothiazol-2-ylamino)-1-oxo-3-(tetrahydro-2H-pyran-4-yl)propan-2-yl)-N-cyclopropyl-2,4-dioxo-1,2,3,4-tetrahydroquinazoline-7-carboxamide], at least 2000 nM; under `CCS(=O)(=O)c1ccc2c(=O)n(C(CC3CCCCC3)C(=O)Nc3ccc(F)cn3)cnc2c1` (stereo not shown) [Compound 71, 3-Cyclohexyl-2-(7-ethanesulfonyl-4-oxo-4H-quinazolin-3-yl)-N-(5-fluoro-pyridin-2-yl)-propionamide], 1000 to 1580 nM.
In the case of `COc1ccc2ncn(C(CC3CCCCC3)C(=O)Nc3ccc(Cl)cn3)c(=O)c2c1` (stereo not shown) [Compound 168, N-(5-chloropyridin-2-yl)-3-cyclohexyl-2-(6-methoxy-4-oxoquinazolin-3(4H)-yl)propanamide] it was 501 to 794 nM.
Regarding `Cc1ccc(NC(=O)C(CC2CCCCC2)n2cnc3ccc(F)cc3c2=O)nc1` (stereo not shown) [Compound 192, 3-cyclohexyl-2-(6-fluoro-4-oxoquinazolin-3(4H)-yl)-N-(5-methylpyridin-2-yl)propanamide], the EC50 is at least 2000 nM.
Under `COC(=O)c1ccc(NC(=O)C(CC2CCCCC2)n2cnc3c(C(F)(F)F)cccc3c2=O)nc1` (stereo not shown) [Compound 209, methyl 6-(3-cyclohexyl-2-(4-oxo-8-(trifluoromethyl)quinazolin-3(4H)-yl)propanamido)nicotinate] stands 1000 to 1580 nM.
In the case of `Cc1ccc(NC(=O)C(CC2CCCCC2)n2cnc3c(cnn3C)c2=O)nc1` (stereo not shown) [Compound 110, 3-Cyclohexyl-2-(1-methyl-4-oxo-1H-pyrazolo[3,4-d]pyrimidin-5(4H)-yl)-N-(5-methylpyridin-2-yl)propanamide] it was at least 2000 nM; in that of `O=C(Nc1ncc(Cl)s1)C(CC1CCCCC1)n1cnc2ccc(Cl)cc2c1=O` (stereo not shown) [Compound 47, 2-(6-Chloro-4-oxo-4H-quinazolin-3-yl)-N-(5-chloro-thiazol-2-yl)-3-cyclohexyl-propionamide], 1000 to 1580 nM; in that of `CN1CCC(CNC(=O)c2ccc3c(=O)n(C(CC4CCCCC4)C(=O)Nc4ncc(Cl)s4)cnc3c2)CC1` (stereo not shown) [Compound 178, 3-(1-(5-chlorothiazol-2-ylamino)-3-cyclohexyl-1-oxopropan-2-yl)-N-((1-methylpiperidin-4-yl)methyl)-4-oxo-3,4-dihydroquinazoline-7-carboxamide], 1000 to 1580 nM.
Under `COC(=O)c1ccc(NC(=O)C(CC2CCCCC2)n2cnc3cc(F)ccc3c2=O)nc1` (stereo not shown) [Compound 205, methyl 6-(3-cyclohexyl-2-(7-fluoro-4-oxoquinazolin-3(4H)-yl)propanamido)nicotinate] stands 1000 to 1580 nM.
Turning to `CS(=O)(=O)c1csc2c(=O)n(C(CC3CCCCC3)C(=O)Nc3ccc(C(N)=O)cn3)cnc12` (stereo not shown) [Compound 182, 6-(3-cyclohexyl-2-(7-(methylsulfonyl)-4-oxothieno[3,2-d]pyrimidin-3(4H)-yl)propanamido)nicotinamide], the EC50 lay in the range of 1000 to 1580 nM.
In the case of `CS(=O)(=O)c1csc2c(=O)n(C(CC3CCCCC3)C(=O)Nc3ccc(Cl)cn3)cnc12` (stereo not shown) [Compound 184, N-(5-chloropyridin-2-yl)-3-cyclohexyl-2-(7-(methylsulfonyl)-4-oxothieno[3,2-d]pyrimidin-3(4H)-yl)propanamide] it was 1000 to 1580 nM.
Under `CS(=O)(=O)c1ccc2ncn([C@@H](CC3CCCCC3)C(=O)Nc3ccc(C(N)=O)cn3)c(=O)c2c1` [Compound 93, 6-[3-Cyclohexyl-2-(6-methanesulfonyl-4-oxo-4H-quinazolin-3-yl)-propionylamino]-nicotinamide] stands 501 to 794 nM.
